The text below walks through data of US5049570A, “Pyridylphenyl nitrogen heterocycle-substituted carbinols and derivatives thereof with anti-inflammatory activity” (Du Pont Merck Pharmaceutical Company, priority 1990, dated 1991).

This experiment concerns inflammation induced by tetradecanoyl phorbol acetate (TPA), ears of mice. Briefly: TPA model: inhibition of tetradecanoyl phorbol acetate (TPA)-induced ear swelling (edema) in mice. The format is in vivo. The conditions noted are these: Mus musculus, topical, 4 h, applied to the ears in a vehicle such as acetone, edema measured four hours later, read-out: % inhibition of control swelling. The arrangement: dose or concentration left out as unconfirmed. An excerpt: One such model is inflammation induced by tetradecanoyl phorbol acetate (TPA), modified from the method of Kuehl et al., Nature, 1977, 265, 170; and Van Arman, Clin. Pharmacol. Ther., 1974, 16, 900. The TPA model mimics many of the inflammatory changes which occur in human diseases such as psoriasis, since elevated levels of inflammatory arachidonic acid metabolites are found and an influx of polymorphonuclear leukocytes is observed.
The test procedure used to evaluate the compounds of formula (I) is as follows: the test compound […] was applied to the ears of mice in an appropriate vehicle, such as acetone, and then TPA, the inflammatory stimulus was applied to the right ear. Four hours later, the edema was measured by removing standard size discs from the ears using a biopsy punch. The weights of the ears were determined, and the suppression of the swelling observed in animals not treated with the test compound was determined.

As for `OC(Cn1ccnc1)(c1ccccc1)c1ccc(-c2ccncc2)cc1` (centres unmarked) [Example 9], the inhibition in vivo is 46%.
As to `OC(Cn1ccnc1)(c1ccc(-c2ccccn2)cc1)c1ccc(F)cc1F` (centres unmarked) [Example 2], the inhibition in vivo is 51%.
For `OC(Cn1ccnc1)(c1ccc(F)cc1)c1cccc(-c2ccncc2)c1` (centres unmarked) [Example 8, 1-(4-fluorophenyl)-1-[3-(4-pyridyl)phenyl]-2-(1-imidazolyl)ethanol], the inhibition in vivo came to 69%.
For the compound `OC(Cn1ccnc1)(c1ccc(Cl)cc1)c1ccc(-c2ccncc2)cc1` (centres unmarked) [Example 22, 1-(4-chlorophenyl)-1-[4-(4-pyridyl)phenyl]-2-(1-imidazolyl)ethanol], the inhibition in vivo came to 79%.
Regarding `OC(Cn1ccnc1)(c1ccc(F)cc1)c1ccc(-c2ccccn2)cc1` (centres unmarked) [Example 3], the inhibition in vivo turned out to be 63%.
For the compound `OC(Cn1ccnc1)(c1ccc(F)cc1)c1cccc(-c2ccccn2)c1` (centres unmarked) [Example 6], the inhibition in vivo was determined as 61%.
Regarding `OC(Cn1ccnc1)(c1ccc(-c2ccncc2)cc1)c1ccc(F)cc1F` (centres unmarked) [Example 5, 1-(2,4-difluorophenyl)-1-[4-(4-pyridyl)phenyl]-2-(1-imidazolyl)ethanol], the inhibition in vivo was determined as 73%.
Take `OC(Cn1ccnc1)(c1ccc(-c2cccnc2)cc1)c1ccc(F)cc1F` (centres unmarked) [Example 4]: the inhibition in vivo was 52%.
Then `COc1ccc(C(O)(Cn2ccnc2)c2ccc(-c3ccncc3)cc2)cc1` (centres unmarked) [Example 12, 1-(4-methoxyphenyl)-1-[4-(4-pyridyl)phenyl]-2-(1-imidazolyl)ethanol], with 74%; and `Cc1ccc(C(O)(Cn2ccnc2)c2ccc(-c3ccncc3)cc2)cc1` (centres unmarked) [Example 11, 1-(4-methylphenyl)-1-[4-(4-pyridyl)phenyl]-2-(1-imidazolyl)ethanol], with 62%; and `OC(Cn1ccnc1)(c1ccc(-c2ccncc2)cc1)c1ccc(C(F)(F)F)cc1` (centres unmarked) [Example 21, 1-(4-trifluoromethylphenyl)-1-[4-(4-pyridyl)phenyl]-2-(1-imidazolyl)ethanol], with 66%.
Consider `OC(Cn1ccnc1)(c1ccc(-c2ccncc2)cc1)c1ccccc1Cl` (centres unmarked) [Example 10], for which the inhibition in vivo worked out at 63%.
As to `OC(Cn1ccnc1)(c1ccc(F)cc1)c1cccc(-c2cccnc2)c1` (centres unmarked) [Example 7], the inhibition in vivo came out at 64%.
Then `OC(Cn1ccnc1)(c1ccc(F)cc1)c1ccc(-c2ccncc2)cc1` (centres unmarked) [Example 1, 1-(4-fluorophenyl)-1-[4-(4-pyridyl)phenyl]-2-(1-imidazolyl)ethanol], with 72%.
